Measured values reported in patent publication US20240270762A1, “PENICILLIN-BINDING PROTEIN INHIBITORS” (priority 2021, published 2024).
In brackets after ≈: the same amount, converted by molar mass.

Assays:
[1] = target: T1, PBP1a from Acinetobacter baumannii (ATCC 19606) (Acinetobacter baumannii, UniProt A0ABX6CK30); experiment: Bocillin-FL fluorescence polarization competition binding, A. baumannii PBP1a; conditions: fluorescence polarization competition binding assay using Bocillin-FL; read-out: A. baumannii PBP1a Potency
T1 sequence (A0ABX6CK30 1-851): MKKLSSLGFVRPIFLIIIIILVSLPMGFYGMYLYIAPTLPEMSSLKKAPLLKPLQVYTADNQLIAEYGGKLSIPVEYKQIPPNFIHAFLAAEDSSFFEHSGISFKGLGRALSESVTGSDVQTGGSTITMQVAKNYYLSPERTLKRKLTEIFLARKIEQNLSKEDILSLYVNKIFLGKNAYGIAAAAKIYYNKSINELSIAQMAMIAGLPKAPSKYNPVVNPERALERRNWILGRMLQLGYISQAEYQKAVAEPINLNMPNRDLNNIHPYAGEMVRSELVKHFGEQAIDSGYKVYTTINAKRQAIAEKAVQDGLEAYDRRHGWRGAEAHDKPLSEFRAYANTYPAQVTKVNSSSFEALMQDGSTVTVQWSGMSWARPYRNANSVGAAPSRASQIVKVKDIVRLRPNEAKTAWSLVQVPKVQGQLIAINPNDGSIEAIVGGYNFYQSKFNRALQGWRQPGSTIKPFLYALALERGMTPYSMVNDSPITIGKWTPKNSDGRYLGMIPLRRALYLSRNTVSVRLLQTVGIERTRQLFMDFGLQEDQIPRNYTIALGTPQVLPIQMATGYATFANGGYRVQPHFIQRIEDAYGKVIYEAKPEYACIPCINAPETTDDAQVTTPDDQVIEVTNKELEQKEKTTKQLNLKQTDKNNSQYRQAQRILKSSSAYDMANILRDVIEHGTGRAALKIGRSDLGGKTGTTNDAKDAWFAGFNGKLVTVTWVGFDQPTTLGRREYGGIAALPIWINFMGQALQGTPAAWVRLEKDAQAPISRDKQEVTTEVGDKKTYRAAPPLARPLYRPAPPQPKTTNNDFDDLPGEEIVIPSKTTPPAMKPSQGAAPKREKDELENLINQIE
Method in brief: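 Purified PBP was preincubated with inhibitor (E. coli PBP3 1.5 μM, 30 min; P. aeruginosa PBP3 0.75 μM, A. baumannii PBP3 0.2 μM and PBP1a 1 μM, 15 min), then Bocillin-FL (0.1 μM; 0.05 μM for PBP1a) added and FP read up to 60 min. EC50 = 50% loss of bound probe.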

[2] = system: N. gonorrhoeae ATCC 49226; experiment: Liquid broth MIC in Fastidious broth; conditions: Neisseria gonorrhoeae, ATCC49226, read-out: Minimum Inhibitory Concentration, ATCC 49226
Protocol: (§1) Additional antibacterial testing of the series was performed in 8 reference strains of N. gonorrhoeae (ATCC 49226, FA1090, MS 11, WHO G, WHO L, WHO M, WHO K, WHO X, WHO Z, WHO Q, CDC-0197). ATCC 49226, FA1090, MS11, WHO G, WHO L, and WHO M produce wild type or wild-type like PBP2. WHO K, WHO X, WHO Z, WHO Q, and CDC-0197 produce mosaic PBP2. Liquid broth-based assays were used for antibacterial testing of PBP inhibitors in Neisseria gonorrhoeae. Briefly, cryo-preserved bacterial cultures of clinical strains were streaked for isolation on Chocolate Agar (72 g/L (2×) GC Agar Base (BD #228950) and 2% (2×) Hemoglobin was autoclaved at 121° C. for 20 minutes to sterilize. Once cooled to ˜50° C. the 2×GC Agar Base and 2× Hemoglobin solutions are combined and 1% IsoVitaleX Enrichment (BD #211876) was added to the solution). Strains were incubated at 36° C. and 5% CO2 to allow growth of colonies, 24 hours before inoculum preparation. 2-fold serial dilutions of test compounds were conducted in a 96 well plate with a final volume of 75 μL per well at 2-fold the final desired concentration in Fastidious broth (Remel #R07664). For preparation of assay inoculum, a direct suspension was prepared by aseptically swabbing 10-15 colonies from agar plates into culture tubes containing 2 mL of fresh sterile saline. After the dilution plates were set up, direct suspensions were then diluted in a cuvette containing sterile saline and the optical density was measured at 600 nm. Inocula were diluted such that 75 μL of this culture in Fastidious broth results in a starting bacterial concentration of 5×10^5 CFU/mL when added to the dilution plates. The plates were incubated for ˜24 hours at 36° C. and 5% CO2.

N. gonorrhoeae MS11 = experiment: Liquid broth MIC in Fastidious broth; conditions: Neisseria gonorrhoeae, MS11, read-out: Minimum Inhibitory Concentration, MS11
Protocol: as §1

N. gonorrhoeae WHO G = experiment: Liquid broth MIC in Fastidious broth; conditions: Neisseria gonorrhoeae, read-out: Minimum Inhibitory Concentration, WHO G
Protocol: as §1

N. gonorrhoeae WHO L = experiment: Liquid broth MIC in Fastidious broth; conditions: Neisseria gonorrhoeae, read-out: Minimum Inhibitory Concentration, WHO L
N. gonorrhoeae WHO K = experiment: Liquid broth MIC in Fastidious broth; conditions: Neisseria gonorrhoeae, read-out: Minimum Inhibitory Concentration, WHO K
N. gonorrhoeae WHO X = experiment: Liquid broth MIC in Fastidious broth; conditions: Neisseria gonorrhoeae, read-out: Minimum Inhibitory Concentration, WHO X
N. gonorrhoeae WHO Q = experiment: Liquid broth MIC in Fastidious broth; conditions: Neisseria gonorrhoeae, read-out: Minimum Inhibitory Concentration, WHO Q
Protocol: Liquid broth-based assays were used for antibacterial testing of PBP inhibitors in Neisseria gonorrhoeae. Briefly, cryo-preserved bacterial cultures of clinical strains were streaked for isolation on Chocolate Agar (72 g/L (2×) GC Agar Base (BD #228950) and 2% (2×) Hemoglobin was autoclaved at 121° C. for 20 minutes to sterilize. Once cooled to ˜50° C. the 2×GC Agar Base and 2× Hemoglobin solutions are combined and 1% IsoVitaleX Enrichment (BD #211876) was added to the solution). Strains were incubated at 36° C. and 5% CO2 to allow growth of colonies, 24 hours before inoculum preparation. 2-fold serial dilutions of test compounds were conducted in a 96 well plate with a final volume of 75 μL per well at 2-fold the final desired concentration in Fastidious broth (Remel #R07664). For preparation of assay inoculum, a direct suspension was prepared by aseptically swabbing 10-15 colonies from agar plates into culture tubes containing 2 mL of fresh sterile saline. After the dilution plates were set up, direct suspensions were then diluted in a cuvette containing sterile saline and the optical density was measured at 600 nm. Inocula were diluted such that 75 μL of this culture in Fastidious broth results in a starting bacterial concentration of 5×10^5 CFU/mL when added to the dilution plates. The plates were incubated for ˜24 hours at 36° C. and 5% CO2.

## O=C(NCCS(=O)(=O)N1CCN(C(=O)NC(C(=O)N[C@H]2Cc3ccc(F)c(C(=O)O)c3OB2O)c2cc(F)c(O)c(O)c2Cl)C1=O)Nc1ccc(O)cc1 (stereo partly drawn) [Example 289, (3R)-3-(2-(2-chloro-5-fluoro-3,4-dihydroxyphenyl)-2-(3-((2-(3-(4-hydroxyphenyl)ureido)ethyl)sulfonyl)-2-oxoimidazolidine-1-carboxamido)acetamido)-7-fluoro-2-hydroxy-3,4-dihydro-2H-benzo[e][1,2]oxaborinine-8-carboxylic acid]
[1]
  IC50: > 250 µM
[2]
  MIC: 16 to 32 µg/mL (≈ 20.1 to 40.2 µM)
N. gonorrhoeae MS11
  MIC: 4 to 8 µg/mL (≈ 5.02 to 10 µM)
N. gonorrhoeae WHO G
  MIC: 4 to 8 µg/mL (≈ 5.02 to 10 µM)
N. gonorrhoeae WHO L
  MIC: > 64 µg/mL
N. gonorrhoeae WHO K
  MIC: 16 to 32 µg/mL (≈ 20.1 to 40.2 µM)
N. gonorrhoeae WHO X
  MIC: > 64 µg/mL
N. gonorrhoeae WHO Q
  MIC: 4 to 8 µg/mL (≈ 5.02 to 10 µM)
